# Measurements reported in publication PMC8160210, “Single tryptophan Y160W mutant of homooligomeric E. coli purine nucleoside phosphorylase implies that dimers forming the hexamer are functionally not equivalent” (Scientific Reports, 2021).
# Read-outs that look alike come from different tables or passages of the source.
# Molecular target: T1, WT E. coli PNP (Escherichia coli, UniProt P0ABP8)
# T1 construct: made in house
# T1 sequence (P0ABP8 2-239 limits assumed): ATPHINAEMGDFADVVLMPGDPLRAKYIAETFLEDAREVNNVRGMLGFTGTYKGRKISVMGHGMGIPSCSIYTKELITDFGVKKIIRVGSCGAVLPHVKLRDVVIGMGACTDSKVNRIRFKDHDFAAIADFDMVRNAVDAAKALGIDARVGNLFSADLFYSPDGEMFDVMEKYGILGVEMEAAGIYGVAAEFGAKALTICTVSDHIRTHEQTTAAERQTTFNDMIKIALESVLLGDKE
# Assay: Thermophoretic (MST) titrations with phosphate
# Settings: two-binding-site model, 25 °C
# Description: Measurements were performed with Monolith NT115 (NanoTemper). Enzyme was labelled with NT647 fluorescent dye (NanoTemper) according to the protocol provided by the manufacturer. Labelled proteins show fluorescence excitation and emission maxima of approximately 650 and 670 nm, respectively. The series of titrations were performed at a constant protein concentration. Both proteins (WT and mutant), and ligands were dissolved in 50 mM Tris/HCl pH 7.6 buffer, measurements were performed at 25 °C. […] In the pre-experiments, it was carefully checked for both proteins, WT and Y160W mutant whether any sign of aggregation or inactivation occurs, and if mutant behaviour is similar to that of the WT enzyme. […]
# For experiments of the binary complex formation with phosphate, curves were measured at four different powers of the heating laser. Two to five titrations at each heating power were measured, and curves were averaged for a particular heating power. […] This is an area inaccessible in fluorescence titration due to the quenching of the protein fluorescence at such a high ionic strength of the solution. […]
# Titration series were analysed globally, always starting from the simplest, one-binding-site model. […] For all tested models the Akaike information criterion[23] was also calculated. […]
smiles,measurement,setting,value
"O=P(O)(O)O [Pi, Orthophosphate]",Kd,"50 mM Tris/HCl pH 7.6, read-out: Kd1 ± SD",7 µM
same,Kd,"50 mM Tris/HCl pH 7.6, read-out: Kd3 ± SD",1640 µM
